Measurements reported in publication PMC6801822, “The Bactericidal Activity of Temporin Analogues Against Methicillin Resistant Staphylococcus aureus” (International Journal of Molecular Sciences, 2019).
Converted amounts (≈) assume the structure as drawn. Read-outs that look alike come from different tables or passages of the source. Non-standard residues stand in square brackets, D forms with d. Residues, ends and D or L forms follow the SMILES beside them. AEEA = NCCOCCOCC(=O)O

Tests used:
S. aureus USA300 [1] = experiment: LIVE/DEAD BacLight staining (SYTO9/PI); type: cell-based, Staphylococcus aureus; conditions: 3 h, n = 2
Experimental: USA300 cells were collected from overnight cultures, at the end of the exponential growth phase and the beginning of the stationary phase, washed and suspended at 2 × 10^7 bacteria/mL and staphylococci were treated with DAL-PEG-DK5 (0.5–50 µg/mL) for 3 h. In order to obtain a standard curve, five different proportions of live and dead bacteria were mixed prior to staining. After the incubation, the 100 µL of bacterial suspensions were transferred to flat bottom black 96-well microtitration plate. Staining solution containing SYTO9 and PI (100 µL) prepared according to manufacturer’s instructions was then mixed with bacterial suspensions. Samples were incubated at room temperature in the dark for 15 min and fluorescence intensity was measured with FlexStation3 Multimode Microplate Reader using a 485 nm excitation filter (for both SYTO9 and PI) and a 530 nm (SYTO9 emission wavelength) and 630 nm (PI emission wavelength) emission filter. The data were analyzed by dividing the fluorescence intensity of the stained bacterial suspensions at green emission by the cell fluorescence intensity of red fluorescence. All samples were prepared in triplicates.

HaCaT cells [2] = experiment: MTT cell viability test; type: cell-based, human
Experimental: (§1) Figure 3 The influence of DAL-PEG-DK5 on physiology of human keratinocytes. The potentially toxic effect of DAL-PEG-DK5 on HaCaT cells was evaluated using (A) MTT and (B) LDH assay. Cells were plated on 96-well plates and incubated overnight. Next, keratinocytes were treated with the peptide at different concentrations (5–200 μg/mL) for 3, 6, 18 h. Mean ± SD n = 2. ** p < 0.005 *** p < 0.001 **** p < 0.0001; 2way ANOVA. (C) Morphology of HaCaT cells was examined by confocal laser scanning microscopy. HaCaT cells were treated with CFS-conjugated DAL-PEG-DK5 (25 μg/mL) for 30 min at 37 °C and were stained with: DAPI and phalloidin for nuclear detection and actin cytoskeleton detection, respectively. Blue – DNA; red – f-actin; green-peptide conjugate; scale bar: 10 μm. Images present single slice of XY stacks.
The viability of HaCaT cells was examined by a 3-(4,5-dimethylthiazol-2-yl)-2,5-diphenyltetrazolium bromide (MTT, Sigma-Aldrich) reduction assay. In brief, cells were incubated with 10% (v/v) of a 5 mg/mL MTT solution for 1 to 2 h at 37 °C until purple precipitate is visible and acidified isopropanol was added followed by measuring of the absorbance at a wavelength of 570 nm.

HaCaT cells [3] = experiment: LDH release assay (CytoTox96); type: cell-based, human; conditions: for cytotoxicity (LDH), % of cells: HaCaT, 200 μg/mL
Experimental: as §1
To assess the effect of peptides on the integrity of the plasma membrane, the LDH release assay was performed using the CytoTox96 nonradioactive cytotoxicity assay kit (Promega, Madison, WI, USA) according to the manufacturer’s instructions. Cytotoxicity was calculated with the formula: % cytotoxicity = 100 × (experimental LDH release/ maximum LDH release), where maximum LDH release is after lysis solution addition (Triton X-100). Relative amounts of LDH release were measured (absorbance at 490 nm) using plate reader SpectraMax (Molecular Device, Wokingham, UK). All assays were performed in triplicate.

[4] = test system: S. aureus USA300 (MRSA) in suspension; experiment: Killing of MRSA in suspension, CFU count; type: cell-based, Staphylococcus aureus; conditions: MRSA 2 × 10^6 CFU/mL, peptide 50 μg/mL, 1 h, n = 2
S. aureus USA300 [5] = conditions: MRSA; equal to 40 μg/mL
Experimental: (§2) Antimicrobial activity of peptides was analyzed through determination of MIC parameter according to the standard microdilution technique performed on 96-well plates. Mueller-Hinton broth (MHB, Sigma Aldrich, St. Louis, MO, USA) was used as the working medium for all bacterial strains. Briefly, inoculum was prepared from freshly grown cultures of bacteria being at their exponential phase of growth. Each well of 96-well plates containing 100 µL of serially diluted peptides in PBS at desired concentration was inoculated with 100 µL of 10^5 CFU/mL of bacterial suspension. Then plates were incubated overnight 37 °C and absorbance was read at 600 nm after 24 h. Wells without peptide were treated as the positive control, while uninoculated MHB was defined as the negative control. All measurements were run in triplicates.

S. aureus Newman = conditions: S. aureus Newman; broth microdilution, MHB, 37 °C, 24 h, triplicates
Experimental: as §2

S. aureus ATCC 25923 = conditions: S. aureus ATCC 25923; broth microdilution, MHB, 37 °C, 24 h, triplicates
Experimental: as §2

[6] = test system: S. epidermidis ATCC 12228; conditions: S. epidermidis ATCC 12228; broth microdilution, MHB, 37 °C, 24 h, triplicates
Experimental: as §2

[7] = test system: MRSA clinical isolate 1694; conditions: MRSA clinical isolate 1694 (blood); broth microdilution, MHB, 24 h
Experimental: as §2

[8] = test system: MRSA clinical isolate 2872cv; conditions: MRSA clinical isolate 2872cv (blood); broth microdilution, MHB, 24 h
Experimental: as §2

[9] = test system: MRSA clinical isolate 7219; conditions: MRSA clinical isolate 7219 (blood); broth microdilution, MHB, 24 h
Experimental: as §2

[10] = test system: MRSA clinical isolate 7569; conditions: MRSA clinical isolate 7569 (blood); broth microdilution, MHB, 24 h
Experimental: as §2

[11] = test system: MRSA clinical isolate 7718; conditions: MRSA clinical isolate 7718 (blood); broth microdilution, MHB, 24 h
Experimental: as §2

[12] = test system: MRSA S. aureus strains (clinical isolates)
Experimental: as §2

[13] = cited from earlier work
Excerpt: The efficient antibacterial activity of the DAL-PEG-DK5 conjugate may be due to the fact that it has a higher cationic charge than DK5 (+7 vs. +6, respectively). However, a α-helicity must also play an important role in this case. According to a common view about the mechanism underlying the antimicrobial activity of AMPs, formation of hel ...

S. aureus USA300 biofilm = experiment: Disruption of mature biofilm, crystal violet; conditions: mature biofilm (24 h) of USA300, peptide at 4 × MIC (160 μg/mL), n = 3
Experimental: USA300 strain was grown in 96-well plates at 37 °C for 24 h to form biofilm. Peptide was added at desired concentrations and plates were incubated for additional 24 h. […] Mean ± SD n = 3. ** p < 0.0151; one-way ANOVA.
Briefly, USA300 strain grown overnight was diluted 1:100 in TSB + 1% glucose and incubated in 96-well plates at 37 °C for 24 h. After removing media, wells were rinsed with PBS to remove planktonic bacteria before re-filling wells with fresh MHB. Peptide conjugates were added at desired concentrations and plates were incubated at 37 °C for 24 h. After incubation, wells were washed and biofilms were stained with 0.5% (w/v) crystal violet for 30 min. The dye was solubilized with ethanol (95%) and the OD of biofilms was measured.

[14] = test system: intracellular S. aureus USA300 in HaCaT cells; experiment: Killing of intracellular S. aureus in keratinocytes, CFU count
Experimental: (A) USA300 survival within infected HaCaT cells. Keratinocytes were infected with USA300 (MOI 1:5, 1:25, 1:50, 1:100) for 2.5 h and treated with DAL-PEG-DK5 (50 μg/mL) for 3 h. Afterwards, keratinocytes were lysed and plated on agar plates for counting of bacteria. The number of viable bacterial cells is expressed as CFU/mL with respect to the number of intracellular bacteria in the corresponding control samples. The data shown is representative of two separate experiments performed in triplicate. Mean ± SD n = 2. * p < 0.01; ** p < 0.005; one-way ANOVA. (B) Keratinocytes were infected with USA300 (MOI 1:50) for 2.5 h and treated with DAL-PEG-DK5 (50 μg/mL) for indicated time points (1, 3, 6 h). Afterwards, keratinocytes were lysed and plated on agar plates for counting of bacteria. The number of viable bacterial cells is expressed as a CFU/mL with respect to the number of intracellular bacteria in the corresponding control samples. Mean ± SD n = 2. * p < 0.01; ** p < 0.005; **** p < 0.0001; one-way ANOVA. […] (C) Keratinocytes were infected with USA300 (MOI 1:50) for 2.5 h and treated with DAL-PEG-DK5 (50 μg/mL) for 1 h. Afterwards, keratinocytes were lysed and plated on agar plates for counting of bacteria. […] The number of viable bacterial cells is expressed as a % of control with respect to the number of intracellular bacteria/bacteria in suspension in the corresponding control samples. […]

Q: Which live bacteria (S. aureus USA300 [1]; USA300, 5 μg/mL) does the source give for CC[C@H](C)[C@H](NC(=O)COCCOCCNC(=O)[C@H](CCCNC(=N)N)NC(=O)[C@H](CC(C)C)NC(=O)[C@H](Cc1ccccc1)NC(=O)CNC(=O)[C@@H](C)NC(=O)[C@@H](N)Cc1ccc(O)cc1)C(=O)N[C@@H](CCCCN)C(=O)N[C@@H](CCCCN)C(=O)N[C@H](C(=O)N[C@@H](CC(C)C)C(=O)N[C@@H](CO)C(=O)N[C@H](CCCCN)C(=O)N[C@H](C(=O)N[C@@H](CCCCN)C(=O)N[C@@H](CCCCN)C(=O)N[C@@H](CC(C)C)C(=O)N[C@@H](CC(C)C)C(N)=O)[C@@H](C)CC)[C@@H](C)CC [DAL-PEG-DK5] (H-Y[dA]GFLR[AEEA]IKKILS[dK]IKKLL-NH2; N-terminus assumed) here?
A: Its live bacteria is 20%.

Q: What about the live bacteria (S. aureus USA300 [1]; USA300, 10 μg/mL) of the same molecule?
A: The live bacteria was 5%.

Q: And the “effect on metabolism of HaCaT cells (MTT)” value (HaCaT cells [2]; 5 to 75 μg/mL, 3, 6 and 18 h, n = 2)?
A: The value was “did not affect the metabolism of HaCaT cells”.

Q: And the “effect on metabolically active HaCaT cells (MTT)” value (HaCaT cells [2]; 100 or 200 μg/mL, 3, 6, 18 h)?
A: Its value is “reduced the number of metabolically active cells in a concentration-dependent manner”.

Q: What about the “LDH release from HaCaT cells” value (HaCaT cells [3]; 75 μg/mL) of the same molecule?
A: The value was “low, but still significant, release of dehydrogenase”.

Q: What about the “cytotoxicity (LDH), % of cells” value (HaCaT cells [3]; 3 and 6 h) of the same molecule?
A: Its value is 40%.

Q: What about the “cytotoxicity (LDH), % of cells” value (HaCaT cells [3]; 18 h) of the same molecule?
A: Its value is 100%.

Q: And the “non-toxic dose for HaCaT cells” value (HaCaT cells [3]; based on MTT and LDH data)?
A: Its value is no more than 50 µg/mL.

Q: What about the “reduction in the number of live bacteria in suspension” value [4] of the same molecule?
A: The value was 74%.

Q: What about the MIC (S. aureus USA300 [5]) of the same molecule?
A: Its MIC is 17.56 µM (≈ 40 µg/mL).

Q: What about the MIC (S. aureus Newman) of the same molecule?
A: The MIC was 140 µg/mL (≈ 61.5 µM).

Q: And the MIC (S. aureus ATCC 25923)?
A: The MIC was 40 µg/mL (≈ 17.6 µM).

Q: And the MIC [6]?
A: The MIC was 60 µg/mL (≈ 26.4 µM).

Q: And the MIC [7]?
A: The MIC was 70 µg/mL (≈ 30.7 µM).

Q: What about the MIC [8] of the same molecule?
A: Its MIC is 40 µg/mL (≈ 17.6 µM).

Q: And the MIC [9]?
A: The MIC was 30 µg/mL (≈ 13.2 µM).

Q: What about the MIC [10] of the same molecule?
A: Its MIC is 40 µg/mL (≈ 17.6 µM).

Q: And the MIC [11]?
A: Its MIC is 50 µg/mL (≈ 22 µM).

Q: What about the “MIC against the majority of tested MRSA strains (90%)” value ([12]; conversion of 40 μg/mL) of the same molecule?
A: The value was 17.56 µM.

Q: And the “MIC against the majority of tested MRSA strains (90%)” value ([12]; estimate of the discussion)?
A: Its value is 40 µg/mL.

Q: And the α-helical content ([13]; circular dichroism, 30 mM SDS in water)?
A: Its α-helical content is 35%.

Q: And the cationic charge [13]?
A: The cationic charge was “+7”.

Q: And the “reduction of biofilm mass” value (S. aureus USA300 biofilm)?
A: The value was 50%.

Q: What about the “reduction of intracellular USA300 load” value ([14]; HaCaT infected 2.5 h at MOI 1:50 and 1:100, peptide 50 μg/mL, 3 h) of the same molecule?
A: Its value is “more than 60%”.

Q: What about the “reduction of MRSA load in keratinocytes” value ([14]; HaCaT, USA300 MOI 1:50, peptide 50 μg/mL (1.25 × MIC), 1 h, n = 2) of the same molecule?
A: Its value is 71.5%.
